Experiment [1] concerns brain myelination (myelin water fraction). The experiment in a line: Cross-sectional correlation of infant formula nutrient content with brain myelination (MRI myelin water fraction). Format: in vivo, human. The note with it: children up to 5 years fed different infant formulas. From the text: This technique provides a quantitative measure, the Myelin Water Fraction (MWF), which is a surrogate marker of myelin content in the brain.
Infants included in this study were drawn from a larger longitudinal study of normal brain and behavioral development: the Brown University Assessment of Myelination and Behavior Across Maturation (BAMBAM). To focus on neurotypical development, children with known potential risk factors for learning, neurologic, or psychiatric disorders were specifically excluded during recruitment and enrollment. Thus, children with in utero alcohol or illicit substance exposure, premature (<37 weeks gestation) or multiple birth, fetal ultrasound abnormalities, complicated pregnancy (e.g., preeclampsia), APGAR scores <8, NICU admission, neurological disorder (e.g., head injury, epilepsy), psychiatric or developmental disorders in the infant, parents or siblings (including maternal depression requiring medication) were excluded. Ongoing screenings, such as the MCAT for autism, or CBCL for behavioral problems, were further used to remove enrolled children with clinically concerning behaviors or overt medical conditions (such as autism spectrum disorders).
A combination of retrospective and prospective data were acquired from parents via detailed medical histories and parental interview on the type of infant formula used, percentage of breastfeeding to formula feeding, and length of exclusive breastfeeding. This information was updated at each study visit, which occurred approximately every 6 months for children under 2 years, and yearly for older children. Using this information, children were categorized into one of 2 groups: #1. Exclusively formula-fed; and #2. Exclusively breastfed for at least 90 days (3 months). Children who were fed a combination of breastmilk and formula within 3 months were excluded from our analysis. Infants within the exclusively formula-fed group were further sub-divided based on parental reports of the main infant formula used throughout the first 3 months. Main formula was defined as that given 90% of the time or more (in the case were parents used an alternate brand during vacation, for example).
Using these criteria, 94 exclusively formula-fed infants and young children were selected into group #1. These included 13 children who received formula #2; 28 who received formula #5; 8 who received formula #3; 39 who received formula #4; 5 who received formula #1 and 1 who received formula #6. A sample of 52 exclusively breast-fed infants were also selected and matched to the over formula-fed group with regards to mean age, gestation duration, birth weight, male:female ratio, ethnicity ratio, maternal education, family size, and number of languages spoken in the home (in addition to English).

In experiment [2] the test system is Neural Progenitor Cell (NPCs) from E14 mouse neocortex. The experiment in a line: Neurosphere counts in 96-well plates. The class given is cell-based. Conditions: Sphingomyelin Low dose (Dose 1: 10 nM); cells grown for 2 days. On the procedure:
(§1) Generation of Neural Progenitor Cell (NPCs) Libraries: • dissociation of E14 mouse neocortex
(§2) E14 pup brains were harvested and placed in ice cold DPBS (1×)+10% Pen/Strep, then they were dissected using a dissecting microscope. From each pup, one brain hemisphere was placed in 2 ml of Neurobasal media/10% P/S/10× Hepes and another brain hemisphere was placed in another tube.
(§3) The tissue from each tube was aseptically and manually dissociate into single cells, neurobasal complete medium was added and centrifuged at 130 G for 5 min. The tissue was then re-suspended in neurobasal complete media with GF and placed in a corning suspension culture dish 100 mm×20 mm (#430591). Cells were passage twice using a 1:3 ratio, after what they were centrifuged (130 g 5 min), resuspended in freezing media (10% DMSO and neurobasal complete media, no GF) and frozen in liquid nitrogen (LN2).
Vials were remove from LN2, quickly defrosted, and cells were transferred, dropwise, to a 15 mL conical flask. 10 mls of complete neurobasal media was added. Cells were transferred to a suspension culture dish, and placed in an incubator for 2 hours. At 1.5 hours, cells were examined. Based on the health and number, the number of plates needed was estimated and the appropriate amount of complete neurobasal media was warmed. After 2 hours, cells were put in a 15 mL conical tube and spun at 130 G, 5 min. […]

Experiment [3] shares this test system. The experiment can be described thus: Monolayer culture NPC proliferation assay. The class given is cell-based. The note with it: Sphingomyelin low dose (Dose 1: 10 nM); 3 days culture. On the procedure:
as §1, §2, §3
Vials were remove from LN2, quickly defrosted, and cells were transferred, dropwise, to a 15 mL conical flask. 10 mls of complete neurobasal media was added. Cells were transferred to a suspension culture dish, and placed in an incubator for 2 hours. At 1.5 hours, cells were examined. […]
EDU incorporation was measured using Click-iT® EdU Alexa Fluor® 555 Imaging Kit (Life technologies, #c10338). […]

The results in this text go back to patent US11986445B2, “Nutritional composition and infant formula for promoting myelination of the brain” (SOCIÉTÉ DES PRODUITS NESTLÉ S.A., priority 2015, dated 2024).

In the case of `CCCCC/C=C\C/C=C\C/C=C\C/C=C\CCCC(=O)O` [AA, arachidonic acid], in experiment [1], the “association of nutrient with myelination (myelin water fraction) over time in the brain” value is on record as “an association with myelination (myelin water fraction) was observed”.

`[Ca+2]` [calcium]: the “association of nutrient with myelination (myelin water fraction) over time in the brain” value in experiment [1] is recorded as “an association with myelination (myelin water fraction) was observed”.

Turning to `[Mg+2]` [magnesium], in experiment [1], the “association of nutrient with myelination (myelin water fraction) over time in the brain” value is reported as “an association with myelination (myelin water fraction) was observed”.

For the compound `[P]` [phosphorus], the “association of nutrient with myelination (myelin water fraction) over time in the brain” value in experiment [1] is recorded as “an association with myelination (myelin water fraction) was observed”.

For the compound `[Zn]` [zinc], the “association of nutrient with myelination (myelin water fraction) over time in the brain” value in experiment [1] is listed as “an association with myelination (myelin water fraction) was observed”.

For the compound Sphingomyelin, the “number of neurospheres, Average (Mean)” value in experiment [2] is recorded as 94. Further, the “neuronal proliferation, DAPI” value in experiment [3] amounted to 280. The “association of nutrient with myelination (myelin water fraction) over time in the brain” value in experiment [1] is given as “an association with myelination (myelin water fraction) was observed”.

Turning to iron, in experiment [1], the “association of nutrient with myelination (myelin water fraction) over time in the brain” value is given as “an association with myelination (myelin water fraction) was observed”.

On to phosphatidylcholine, for which, in experiment [1], the “association of nutrient with myelination (myelin water fraction) over time in the brain” value is “an association with myelination (myelin water fraction) was observed”.

phosphatidylinositol: the “association of nutrient with myelination (myelin water fraction) over time in the brain” value in experiment [1] was “an association with myelination (myelin water fraction) was observed”.

Regarding vitamin B12, the “association of nutrient with myelination (myelin water fraction) over time in the brain” value in experiment [1] was “an association with myelination (myelin water fraction) was observed”.
